Data on nine compounds can be found in PMC3815946 (Microbial biotechnology, 2009).

Read-outs that look alike come from different tables or passages of the source.

In assay [1] the test system is 3A6. Briefly: steady-state hydrolysis kinetics, Hanes-Woolf plot. The class given is biochemical. Particulars: read-out: 3A6 / Km; 100 mM Tris-sulfate, pH 8.5, 40 °C, enzyme 0-12 nM.
The subject of assay [2] is 3A6. As to the kind of experiment: steady-state hydrolysis kinetics, Hanes-Woolf plot. The class given is biochemical. Particulars: read-out: 3A6I / Km; 100 mM Tris-sulfate, pH 8.5, 40 °C, enzyme 0-12 nM.

For the compound `COc1cc(/C=C/C(=O)OC[C@@H]2O[C@@H](O[C@@H]3[C@@H](O)[C@H](O[C@@H]4COC(O)[C@H](O)[C@H]4O)OC[C@H]3O)[C@H](O)[C@H]2O)ccc1O` (stereo partly drawn) [FAXX, (5‐O‐(trans‐feruloyl)‐α‐L‐arabinofuranosyl)‐(1,3)‐β‐D‐xylopyranosyl‐(1,4)‐D‐xylopyranose], in the assay on 3A6 [1], the Km was 1960 ± 370 µM.

For `COC(=O)/C=C/c1ccc(O)c(OC)c1` [Methyl ferulate], the Km in the assay on 3A6 [1] turned out to be 2340 ± 370 µM.

With `COC(=O)/C=C/c1ccc(O)cc1` [Methyl p-coumarate], in the assay with 3A6 [1], the Km turned out to be 1550 ± 110 µM.

For the compound `COC(=O)/C=C/c1cc(OC)c(O)c(OC)c1` [Methyl sinapinate], the Km with 3A6 [1] came to 400 ± 80 µM.

As for `COc1cc(/C=C/C(=O)OC[C@@H]2O[C@@H](Oc3ccc([N+](=O)[O-])cc3)[C@H](O)[C@H]2O)ccc1O` [Nph-5-Fe-Araf, p‐nitrophenyl 5‐O‐trans‐feruloyl‐α‐L‐arabinofuranoside], in the assay with 3A6 [1], the Km was 970 ± 30 µM.

Turning to `CC(=O)Oc1ccc([N+](=O)[O-])cc1` [p-Nitrophenyl acetate], the Km in the assay on 3A6 [1] worked out at 180 ± 90 µM; in the assay with 3A6 [2] it was 3480 ± 210 µM.

For `CCCC(=O)Oc1ccc([N+](=O)[O-])cc1` [p-Nitrophenyl butyrate], the Km in the assay with 3A6 [1] was 240 ± 20 µM; with 3A6 [2] it was 890 ± 70 µM.

`CCCCCC(=O)Oc1ccc([N+](=O)[O-])cc1` [p-Nitrophenyl hexanoate]: the Km with 3A6 [1] is 1530 ± 90 µM.

With `CCC(=O)Oc1ccc([N+](=O)[O-])cc1` [p-Nitrophenyl propionate], the Km with 3A6 [1] came to 150 ± 90 µM.
